Source: patent US20240058408A1, “COMPOSITION FOR PREVENTING OR TREATING MACULAR DEGENERATION CONTAINING GINSENG BERRY EXTRACT” (HOLISTIC BIO CO., LTD., priority 2020, published 2024)

Tested on: ARPE-19 cells
Assay: Cell protection against blue light-induced photooxidation of A2E, extract treated after A2E
Type: cell-based
Conditions: Homo sapiens, ARPE-19, 20 min; 30 μM after A2E 20 μM (positive control), blue light 430 nm 6000 lux 20 min; read-out: cell viability compared to the normal group
Experimental: To investigate the photooxidation by blue light induction (post-treatment), ARPE-19 cells were seeded to a 96-well plate at 1×10^4 cell/well and then incubated→(24 hr later) A2E (20 μM) pre-treated once→(after 24 hr) post-treated with a ginseng berry extract (25, 50, 100 μg/ml) once→(after 24 hr) irradiated with blue light (6000 lux, 20 min)→and then, (after 24 hr) the cell viability was measured by using the cell count kit. Since the A2E accumulated in human retinal pigment epithelial cells (ARPE-19 cells) is known to induce cytotoxicity when irradiated with blue light (BL), cell protective capability and cell viability against blue light-induced photooxidation were analyzed. Human retinal pigment epithelial cells (ARPE-19 cells) were aliquoted in a 96-well tissue culture plate at a density of 1×10^4 cells/well and cultured for 24 hours. After treating with A2E at a concentration of 20 μM and culturing for 24 hours, the experimental group was treated with 25, 50, and 100 μg/mL of the ginseng berry extract, a positive control group was treated with 30 μM of lutein instead of the ginseng berry extract, and A2E was accumulated in a negative control group without preliminary drug treatment. After culturing for 24 hours, blue light (BL, 430 nm, 6000 lux) was irradiated for 20 minutes, and after 24 hours, the cell viability was measured by using the cell count kit.

## CC1=C[C@H](O)CC(C)(C)[C@H]1/C=C/C(C)=C/C=C/C(C)=C/C=C/C=C(C)/C=C/C=C(C)/C=C/C1=C(C)C[C@@H](O)CC1(C)C [lutein]
  viability at 30 µM: 88.2%
